Source: ChEMBL document CHEMBL4507267 (2021)

Assays:
[1] = system: Tyrosine-protein kinase ABL1 (Homo sapiens), P00519 [E255K]; conditions: Compound concentration 1000.0 nM
[2] = system: Tyrosine-protein kinase ABL1 (Homo sapiens), P00519 [F317I]; conditions: Compound concentration 1000.0 nM
[3] = target: RAC-gamma serine/threonine-protein kinase (Homo sapiens) (UniProt Q9Y243); conditions: Compound concentration 1000.0 nM
[4] = target: Tyrosine-protein kinase Blk (Homo sapiens) (UniProt P51451); conditions: Compound concentration 1000.0 nM
[5] = target: Calcium/calmodulin-dependent protein kinase kinase 1 (Homo sapiens) (UniProt Q8N5S9); conditions: Compound concentration 1000.0 nM
[6] = target: Cyclin-dependent kinase 4 (Homo sapiens) (UniProt P11802); conditions: Compound concentration 1000.0 nM
[7] = target: Cyclin-dependent kinase 5 (Homo sapiens) (UniProt Q00535); conditions: Compound concentration 1000.0 nM
[8] = target: Casein kinase I isoform alpha (Homo sapiens) (UniProt P48729); conditions: Compound concentration 1000.0 nM
[9] = target: Casein kinase I isoform alpha-like (Homo sapiens) (UniProt Q8N752); conditions: Compound concentration 1000.0 nM
[10] = target: Dual specificity tyrosine-phosphorylation-regulated kinase 1B (Homo sapiens) (UniProt Q9Y463); conditions: Compound concentration 1000.0 nM
[11] = target: Dual specificity tyrosine-phosphorylation-regulated kinase 2 (Homo sapiens) (UniProt Q92630); conditions: Compound concentration 1000.0 nM
[12] = system: Epidermal growth factor receptor (Homo sapiens), P00533 [UNDEFINED MUTATION]; conditions: Compound concentration 1000.0 nM
[13] = system: Epidermal growth factor receptor (Homo sapiens), P00533 [L858R,T790M]; conditions: Compound concentration 1000.0 nM
[14] = target: Ephrin type-A receptor 7 (Homo sapiens) (UniProt Q15375); conditions: Compound concentration 1000.0 nM
[15] = target: Focal adhesion kinase 1 (Homo sapiens) (UniProt Q05397); conditions: Compound concentration 1000.0 nM
[16] = target: Inhibitor of nuclear factor kappa-B kinase subunit beta (Homo sapiens) (UniProt O14920); conditions: Compound concentration 1000.0 nM
[17] = target: Insulin receptor (Homo sapiens) (UniProt P06213); conditions: Compound concentration 1000.0 nM
[18] = target: Interleukin-1 receptor-associated kinase 1 (Homo sapiens) (UniProt P51617); conditions: Compound concentration 1000.0 nM
[19] = target: Tyrosine-protein kinase JAK3 (Homo sapiens) (UniProt P52333); conditions: Compound concentration 1000.0 nM
[20] = target: Mitogen-activated protein kinase 8 (Homo sapiens) (UniProt P45983); conditions: Compound concentration 1000.0 nM
[21] = target: Mitogen-activated protein kinase 10 (Homo sapiens) (UniProt P53779); conditions: Compound concentration 1000.0 nM
[22] = system: Mast/stem cell growth factor receptor Kit (Homo sapiens), P10721 [V559D]; conditions: Compound concentration 1000.0 nM
[23] = target: Mitogen-activated protein kinase kinase kinase 2 (Homo sapiens) (UniProt Q9Y2U5); conditions: Compound concentration 1000.0 nM
[24] = target: Dual specificity mitogen-activated protein kinase kinase 1 (Homo sapiens) (UniProt Q02750); conditions: Compound concentration 1000.0 nM
[25] = target: Mitogen-activated protein kinase kinase kinase 10 (Homo sapiens) (UniProt Q02779); conditions: Compound concentration 1000.0 nM
[26] = target: Serine/threonine-protein kinase Nek3 (Homo sapiens) (UniProt P51956); conditions: Compound concentration 1000.0 nM
[27] = target: Serine/threonine-protein kinase NIM1 (Homo sapiens) (UniProt Q8IY84); conditions: Compound concentration 1000.0 nM
[28] = target: Serine/threonine-protein kinase PAK 4 (Homo sapiens) (UniProt O96013); conditions: Compound concentration 1000.0 nM
[29] = target: Serine/threonine-protein kinase PAK 5 (Homo sapiens) (UniProt Q9P286); conditions: Compound concentration 1000.0 nM
[30] = target: Cyclin-dependent kinase 14 (Homo sapiens) (UniProt O94921); conditions: Compound concentration 1000.0 nM
[31] = target: Serine/threonine-protein kinase PLK2 (Homo sapiens) (UniProt Q9NYY3); conditions: Compound concentration 1000.0 nM
[32] = target: RAF proto-oncogene serine/threonine-protein kinase (Homo sapiens) (UniProt P04049); conditions: Compound concentration 1000.0 nM
[33] = system: Proto-oncogene tyrosine-protein kinase receptor Ret (Homo sapiens), P07949 [V804L]; conditions: Compound concentration 1000.0 nM
[34] = system: Proto-oncogene tyrosine-protein kinase receptor Ret (Homo sapiens), P07949 [V804M]; conditions: Compound concentration 1000.0 nM
[35] = target: Rho-associated protein kinase 1 (Homo sapiens) (UniProt Q13464); conditions: Compound concentration 1000.0 nM
[36] = target: Ribosomal protein S6 kinase alpha-4 (Homo sapiens) (UniProt O75676); conditions: Compound concentration 1000.0 nM
[37] = target: Ribosomal protein S6 kinase alpha-5 (Homo sapiens) (UniProt O75582); conditions: Compound concentration 1000.0 nM
[38] = target: Ribosomal protein S6 kinase alpha-3 (Homo sapiens) (UniProt P51812); conditions: Compound concentration 1000.0 nM
[39] = target: TGF-beta receptor type-2 (Homo sapiens) (UniProt P37173); conditions: Compound concentration 1000.0 nM
[40] = target: Activated CDC42 kinase 1 (Homo sapiens) (UniProt Q07912); conditions: Compound concentration 1000.0 nM
[41] = target: Serine/threonine-protein kinase TNNI3K (Homo sapiens) (UniProt Q59H18); conditions: Compound concentration 1000.0 nM
[42] = target: Serine/threonine-protein kinase WNK4 (Homo sapiens) (UniProt Q96J92); conditions: Compound concentration 1000.0 nM
[43] = target: Kappa-type opioid receptor (Homo sapiens) (UniProt P41145); conditions: Compound concentration 10.0 uM
[44] = target: Muscarinic acetylcholine receptor M2 (Homo sapiens) (UniProt P08172); conditions: Compound concentration 10.0 uM
[45] = target: Muscarinic acetylcholine receptor M4 (Homo sapiens) (UniProt P08173); conditions: Compound concentration 10.0 uM

Sequence of Casein kinase I isoform alpha (Homo sapiens) (P48729 2-337 limits assumed): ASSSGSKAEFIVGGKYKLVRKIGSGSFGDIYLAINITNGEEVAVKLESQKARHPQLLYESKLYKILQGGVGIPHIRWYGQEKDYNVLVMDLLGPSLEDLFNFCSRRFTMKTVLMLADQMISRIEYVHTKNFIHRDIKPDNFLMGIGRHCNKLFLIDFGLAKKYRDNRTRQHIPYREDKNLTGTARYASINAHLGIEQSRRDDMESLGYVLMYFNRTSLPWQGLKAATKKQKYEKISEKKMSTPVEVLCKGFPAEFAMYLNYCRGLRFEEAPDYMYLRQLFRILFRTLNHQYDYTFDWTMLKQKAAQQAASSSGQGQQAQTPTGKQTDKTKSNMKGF
Sequence of Ephrin type-A receptor 7 (Homo sapiens) (Q15375 28-998 limits assumed): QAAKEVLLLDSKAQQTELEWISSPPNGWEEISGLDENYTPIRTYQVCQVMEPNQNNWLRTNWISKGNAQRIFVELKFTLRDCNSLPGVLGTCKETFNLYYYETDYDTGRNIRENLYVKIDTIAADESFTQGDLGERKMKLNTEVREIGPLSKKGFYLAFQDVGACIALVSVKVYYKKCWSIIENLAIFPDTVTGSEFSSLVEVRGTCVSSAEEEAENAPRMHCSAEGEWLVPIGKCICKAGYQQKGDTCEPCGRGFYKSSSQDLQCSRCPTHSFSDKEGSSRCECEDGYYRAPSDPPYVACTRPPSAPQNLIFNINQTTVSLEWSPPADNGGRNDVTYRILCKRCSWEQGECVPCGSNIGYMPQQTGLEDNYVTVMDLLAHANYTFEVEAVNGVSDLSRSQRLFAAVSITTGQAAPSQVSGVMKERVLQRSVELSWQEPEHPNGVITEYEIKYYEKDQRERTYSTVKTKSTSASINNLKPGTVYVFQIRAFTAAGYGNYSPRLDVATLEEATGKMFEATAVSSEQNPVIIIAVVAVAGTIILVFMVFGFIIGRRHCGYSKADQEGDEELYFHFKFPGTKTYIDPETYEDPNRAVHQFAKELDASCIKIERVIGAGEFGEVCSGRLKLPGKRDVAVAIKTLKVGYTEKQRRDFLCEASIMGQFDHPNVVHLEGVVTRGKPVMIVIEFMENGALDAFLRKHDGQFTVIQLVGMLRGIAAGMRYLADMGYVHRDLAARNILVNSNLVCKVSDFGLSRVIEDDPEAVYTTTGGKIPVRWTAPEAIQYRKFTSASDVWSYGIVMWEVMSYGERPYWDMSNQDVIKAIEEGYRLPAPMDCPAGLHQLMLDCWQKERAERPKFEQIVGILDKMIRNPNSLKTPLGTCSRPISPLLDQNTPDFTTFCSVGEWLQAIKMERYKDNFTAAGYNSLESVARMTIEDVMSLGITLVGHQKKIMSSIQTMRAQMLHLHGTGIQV
Sequence of Cyclin-dependent kinase 5 (Homo sapiens) (Q00535 whole entry, looked up, canonical isoform): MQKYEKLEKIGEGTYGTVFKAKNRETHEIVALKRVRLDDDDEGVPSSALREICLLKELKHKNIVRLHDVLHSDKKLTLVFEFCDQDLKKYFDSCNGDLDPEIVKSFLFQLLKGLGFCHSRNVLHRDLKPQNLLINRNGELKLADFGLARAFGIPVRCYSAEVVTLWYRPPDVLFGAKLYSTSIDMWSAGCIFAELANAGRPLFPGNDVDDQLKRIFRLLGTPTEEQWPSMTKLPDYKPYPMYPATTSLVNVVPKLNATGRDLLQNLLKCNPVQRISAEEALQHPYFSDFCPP
Sequence of Tyrosine-protein kinase ABL1 (Homo sapiens), P00519 [F317I] (P00519 whole entry F317I): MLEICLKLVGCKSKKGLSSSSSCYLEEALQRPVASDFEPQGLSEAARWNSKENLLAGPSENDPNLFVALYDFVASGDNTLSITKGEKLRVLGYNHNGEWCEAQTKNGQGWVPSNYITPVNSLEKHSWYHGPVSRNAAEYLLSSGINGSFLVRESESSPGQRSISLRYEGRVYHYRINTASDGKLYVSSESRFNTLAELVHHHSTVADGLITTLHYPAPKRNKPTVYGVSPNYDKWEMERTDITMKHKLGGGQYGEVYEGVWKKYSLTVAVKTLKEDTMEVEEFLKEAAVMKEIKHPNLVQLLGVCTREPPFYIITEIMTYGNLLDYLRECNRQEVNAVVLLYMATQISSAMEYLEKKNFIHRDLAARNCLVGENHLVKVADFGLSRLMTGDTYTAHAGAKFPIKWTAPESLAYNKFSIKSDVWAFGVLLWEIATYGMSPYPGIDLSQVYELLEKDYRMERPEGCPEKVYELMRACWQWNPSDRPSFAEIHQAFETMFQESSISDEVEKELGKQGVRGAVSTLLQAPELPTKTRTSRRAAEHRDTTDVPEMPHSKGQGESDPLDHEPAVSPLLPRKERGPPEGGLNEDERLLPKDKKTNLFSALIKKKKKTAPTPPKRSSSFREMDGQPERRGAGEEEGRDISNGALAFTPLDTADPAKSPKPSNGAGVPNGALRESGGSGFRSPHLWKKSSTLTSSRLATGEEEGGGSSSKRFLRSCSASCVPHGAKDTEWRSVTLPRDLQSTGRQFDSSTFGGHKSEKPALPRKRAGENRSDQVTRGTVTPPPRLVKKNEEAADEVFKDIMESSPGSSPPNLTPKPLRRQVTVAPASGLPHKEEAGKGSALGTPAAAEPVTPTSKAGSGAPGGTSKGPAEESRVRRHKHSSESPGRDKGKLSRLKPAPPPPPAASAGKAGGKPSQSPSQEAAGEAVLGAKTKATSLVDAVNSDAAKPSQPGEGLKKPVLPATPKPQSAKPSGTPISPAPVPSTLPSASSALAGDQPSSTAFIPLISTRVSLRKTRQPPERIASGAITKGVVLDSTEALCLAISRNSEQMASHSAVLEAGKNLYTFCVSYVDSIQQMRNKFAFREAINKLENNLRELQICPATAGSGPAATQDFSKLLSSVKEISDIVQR
Sequence of Cyclin-dependent kinase 14 (Homo sapiens) (O94921 whole entry): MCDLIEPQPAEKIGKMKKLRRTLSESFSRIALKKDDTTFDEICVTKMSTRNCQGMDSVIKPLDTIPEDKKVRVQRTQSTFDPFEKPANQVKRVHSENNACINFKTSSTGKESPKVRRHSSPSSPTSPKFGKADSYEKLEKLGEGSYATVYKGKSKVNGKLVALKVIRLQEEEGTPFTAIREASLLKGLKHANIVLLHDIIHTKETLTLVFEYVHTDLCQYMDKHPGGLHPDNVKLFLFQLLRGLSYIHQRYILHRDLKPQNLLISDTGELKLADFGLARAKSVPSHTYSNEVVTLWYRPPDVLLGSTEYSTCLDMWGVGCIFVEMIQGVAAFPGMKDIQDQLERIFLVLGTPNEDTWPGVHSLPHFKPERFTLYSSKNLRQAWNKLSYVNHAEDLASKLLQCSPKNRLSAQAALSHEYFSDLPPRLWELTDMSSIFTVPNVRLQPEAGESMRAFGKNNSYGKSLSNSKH
Sequence of Cyclin-dependent kinase 4 (Homo sapiens) (P11802 whole entry): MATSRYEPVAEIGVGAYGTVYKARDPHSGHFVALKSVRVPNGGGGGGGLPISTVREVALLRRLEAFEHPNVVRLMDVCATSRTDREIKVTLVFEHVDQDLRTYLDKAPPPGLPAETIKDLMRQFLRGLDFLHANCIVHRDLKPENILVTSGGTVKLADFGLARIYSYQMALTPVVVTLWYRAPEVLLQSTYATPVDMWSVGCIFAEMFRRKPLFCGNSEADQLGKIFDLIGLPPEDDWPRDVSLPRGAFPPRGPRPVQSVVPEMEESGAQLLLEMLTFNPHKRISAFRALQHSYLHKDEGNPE
Sequence of Serine/threonine-protein kinase WNK4 (Homo sapiens) (Q96J92 whole entry): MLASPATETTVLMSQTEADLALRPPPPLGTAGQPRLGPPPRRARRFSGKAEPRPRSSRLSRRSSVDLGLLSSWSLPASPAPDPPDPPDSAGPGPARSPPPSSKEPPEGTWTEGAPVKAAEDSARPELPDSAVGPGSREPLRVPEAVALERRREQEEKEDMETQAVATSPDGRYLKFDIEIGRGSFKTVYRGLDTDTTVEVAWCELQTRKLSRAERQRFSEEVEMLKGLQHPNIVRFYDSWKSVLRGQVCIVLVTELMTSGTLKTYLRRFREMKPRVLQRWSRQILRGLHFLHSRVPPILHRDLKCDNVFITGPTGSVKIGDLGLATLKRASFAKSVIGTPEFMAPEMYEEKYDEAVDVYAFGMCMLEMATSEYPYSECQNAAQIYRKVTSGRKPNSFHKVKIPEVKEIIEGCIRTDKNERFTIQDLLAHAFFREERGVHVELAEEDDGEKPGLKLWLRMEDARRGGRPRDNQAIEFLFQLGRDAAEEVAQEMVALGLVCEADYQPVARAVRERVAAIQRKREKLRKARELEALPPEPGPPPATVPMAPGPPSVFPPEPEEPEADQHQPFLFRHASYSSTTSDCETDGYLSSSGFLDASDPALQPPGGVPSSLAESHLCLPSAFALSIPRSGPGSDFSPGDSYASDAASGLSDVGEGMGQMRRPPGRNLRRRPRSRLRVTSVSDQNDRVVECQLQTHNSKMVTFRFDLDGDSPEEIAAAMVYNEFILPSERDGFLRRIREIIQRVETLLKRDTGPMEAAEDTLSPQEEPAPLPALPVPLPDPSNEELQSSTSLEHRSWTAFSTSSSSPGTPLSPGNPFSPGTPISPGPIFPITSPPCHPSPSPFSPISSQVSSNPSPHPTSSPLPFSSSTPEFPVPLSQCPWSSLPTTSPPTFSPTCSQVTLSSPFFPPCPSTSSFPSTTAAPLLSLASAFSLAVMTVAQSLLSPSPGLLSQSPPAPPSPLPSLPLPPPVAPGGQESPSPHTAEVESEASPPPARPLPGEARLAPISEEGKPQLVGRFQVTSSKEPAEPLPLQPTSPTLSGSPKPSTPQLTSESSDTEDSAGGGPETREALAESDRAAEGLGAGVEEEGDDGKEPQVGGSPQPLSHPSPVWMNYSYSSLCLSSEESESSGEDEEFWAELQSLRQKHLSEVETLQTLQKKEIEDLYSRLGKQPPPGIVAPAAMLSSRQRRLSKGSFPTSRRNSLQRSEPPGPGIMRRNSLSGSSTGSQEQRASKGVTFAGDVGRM
Sequence of Tyrosine-protein kinase ABL1 (Homo sapiens), P00519 [E255K] (P00519 whole entry E255K): as the sequence (P00519 whole entry F317I) above, with E255K, I317F counted along it

Structure (SMILES): Cc1c(NC(=O)c2cc(C(N)=O)nc3cc(F)ccc23)c(C(F)(F)F)nn1Cc1ccc(C(C)(C)C)cc1 [BAY-588]
- residual activity [1]: 100%
- residual activity [2]: 100%
- residual activity [3]: 100%
- residual activity [4]: 72%
- residual activity [5]: 98%
- residual activity [6]: 100%
- residual activity [7]: 76%
- residual activity [8]: 94%
- residual activity [9]: 93%
- residual activity [10]: 81%
- residual activity [11]: 88%
- residual activity [12]: 96%
- residual activity [13]: 100%
- residual activity [14]: 100%
- residual activity [15]: 100%
- residual activity [16]: 100%
- residual activity [17]: 100%
- residual activity [18]: 100%
- residual activity [19]: 100%
- residual activity [20]: 100%
- residual activity [21]: 100%
- residual activity [22]: 95%
- residual activity [23]: 100%
- residual activity [24]: 91%
- residual activity [25]: 78%
- residual activity [26]: 100%
- residual activity [27]: 100%
- residual activity [28]: 100%
- residual activity [29]: 100%
- residual activity [30]: 94%
- residual activity [31]: 100%
- residual activity [32]: 88%
- residual activity [33]: 83%
- residual activity [34]: 100%
- residual activity [35]: 100%
- residual activity [36]: 92%
- residual activity [37]: 89%
- residual activity [38]: 100%
- residual activity [39]: 100%
- residual activity [40]: 100%
- residual activity [41]: 81%
- residual activity [42]: 100%
- inhibition [43]: 22.1%
- inhibition [44]: 15.3%
- inhibition [45]: 8.69%

Structure (SMILES): Cc1c(NC(=O)c2cc(C(N)=O)nc3cc(F)ccc23)c(C(F)(F)F)nn1Cc1ccc(C#N)cc1 [BAY-876]
- residual activity [1]: 76%
- residual activity [2]: 96%
- residual activity [3]: 81%
- residual activity [4]: 77%
- residual activity [5]: 97%
- residual activity [6]: 87%
- residual activity [7]: 100%
- residual activity [8]: 72%
- residual activity [9]: 100%
- residual activity [10]: 87%
- residual activity [11]: 88%
- residual activity [12]: 61%
- residual activity [13]: 93%
- residual activity [14]: 86%
- residual activity [15]: 96%
- residual activity [16]: 92%
- residual activity [17]: 100%
- residual activity [18]: 70%
- residual activity [19]: 90%
- residual activity [20]: 80%
- residual activity [21]: 85%
- residual activity [22]: 100%
- residual activity [23]: 85%
- residual activity [24]: 90%
- residual activity [25]: 92%
- residual activity [26]: 74%
- residual activity [27]: 91%
- residual activity [28]: 98%
- residual activity [29]: 92%
- residual activity [30]: 100%
- residual activity [31]: 78%
- residual activity [32]: 86%
- residual activity [33]: 100%
- residual activity [34]: 100%
- residual activity [35]: 97%
- residual activity [36]: 100%
- residual activity [37]: 100%
- residual activity [38]: 82%
- residual activity [39]: 100%
- residual activity [40]: 71%
- residual activity [41]: 100%
- residual activity [42]: -0%
- inhibition [43]: -6.9%
- inhibition [44]: 25.8%
- inhibition [45]: -4.15%
